Measured values published in patent US20050124696A1, “Pharmaceutical compositions” (priority 2001, published 2005).

Columns and labels:
in vitro = type: cell-based; conditions: human
Description: HeLa cells were plated in 96-well microtiter plates in 100 μl culture medium (4×10^4/well). After 20 hours, the cells were exposed to the test compounds at different dilutions and incubated for the next 8 h at 37° C. in a 5% CO2 humidified atmosphere. After 6 h incubation, the Alamar Blue was added in an amount equal to 10% of the culture volume (10 μl). Two hours after the addition of the Alamar Blue, the fluorescence was measured using a Victor 1420 microplate reader.
The LC50/μM is the concentration at which the tested compound killed half the cells in this assay.

Sendai virus = test: Replication of Sendai virus in 37RC cells (HAU titration of virus yield); type: cell-based; conditions: Respirovirus muris, Sendai virus yield at 24 hours after infection, read-out: ID50 (50% inhibitory dose/concentration)
37RC cells = test: Neutral Red cell viability assay; type: cell-based, monkey; conditions: uninfected 37RC cells, 24 h
Description: Cell viability was determined using the Neutral Red assay. 37RC cells were seeded at density of 6×10^4 cells/well in 24-well plates and incubated for 24 h. Confluent 37RC monolayers were treated with the test compounds at different dilutions for 24 h at 37° C. After incubation, the medium was removed and the cells were incubated with RPM1 medium containing 40 μg/ml Neutral Red dye (500 μl/well). After 2 h at 37° C., the monolayers were washed with phosphate-buffered saline (PBS) and then with a solution containing 1% CaCl2 and 0.5% formaldehyde. After washing, a solution containing 1% acetic acid/50% ethanol was added to the monolayers (250 μl/well). After 10 min at room temperature, the absorbance was determined with a microplate reader (Victor 1420, Wallac) at 540 nm.

HSF = test: hsp70 promoter luciferase reporter assay in HeLa cell clone 13B (HSF activation); type: cell-based, human; conditions: HeLa clone 13B, 8 h treatment
Description: (§1) Method: HeLa cell clone 13B, stably transfected with a luciferase reporter plasmid controlled by the human hsp70 promoter, and HeLa κB-transformed cells, stably transfected with a luciferase reporter plasmid controlled by a synthetic NF-κB-STM construct, were maintained in DMEM medium supplemented with 10% FBS, L-glutamine (2 mM) and G418 (250 μg/ml) at 37° C. in a 5% CO2 humidified atmosphere.
(§2) Cells were seeded at a density of 4×10^4 cells/well in 96-well plates. After 18-20 h, the medium was removed and cells were treated for 8 h with the test compounds (100 μl) at the appropriate dilutions in serum-free medium. For the NF-κB-dependent reporter gene assay, cells were stimulated with TPA (25 ng/ml) 2h after exposure to the compounds.
(§3) After incubation, the medium was removed and cells were lysed in 10 μl of lysis buffer. The luciferase activity was determined by adding 100 μl of substrate and measuring the release of light using a Victor 1420 microplate reader (Wallac, Finland).
The AC200/μM for HSF is the concentration at which the tested compound doubled the HSF activity in this assay. The IC50/μM for NF-κB is the concentration at which the tested compound halved the NF-κB activity in this assay.

NF-κB [1] = test: NF-κB-dependent luciferase reporter gene assay in HeLa κB-transformed cells, TPA stimulated; type: cell-based; conditions: Homo sapiens; HeLa NF-κB-STM luciferase, 8 h treatment, TPA 25 ng/ml 2 h after exposure; read-out: NF-κB; IC50 (concentration at which the tested compound halved the NF-κB activity)
Description: as §1, §2, §3
The fragment Kpn I-BamH I from the pGL3 basic vector containing the luciferase gene (PROMEGA) was inserted in the pcDNA3 vector (INVITROGEN) digested with Bgl II-KpnI. (This digestion removes the CMV-promoter from pcDNA3.) The resulting new vector was digested with Kpn I-Hind III and a promoter containing a ‘5×NF-κB binding sites—TATA box’ sequence was inserted upstream of the luciferase gene. […]

uninfected cells = test: Toxicity to uninfected cells compared with the anti-viral concentration; type: cell-based
NF-κB [2] = test: Luciferase activity of resistant HeLa NF-κB-LUC cell pool after stimulation; type: cell-based, human; conditions: quadruplicate samples, control 1369±149
From the text: The fragment Kpn I-BamH I from the pGL3 basic vector containing the luciferase gene (PROMEGA) was inserted in the pcDNA3 vector (INVITROGEN) digested with Bgl II-KpnI. (This digestion removes the CMV-promoter from pcDNA3.) The resulting new vector was digested with Kpn I-Hind III and a promoter containing a ‘5×NF-κB binding sites—TATA box’ sequence was inserted upstream of the luciferase gene. This vector has been named STM.
To obtain stable HeLa cell lines expressing the luciferase gene under the control of NF-κB, HeLa cells were transfected (using lipofectamine plus GIBCO) with the STM-Pvu I linearized vector, and selected for 20 days with G418 (800 μg/ml). After selection, the resistant HeLa cell pool was controlled (in quadruplicate samples) for luciferase activity after stimulation with TNFα, IL-1 and TPA. The respective luciferase activities were: • 1) Control: 1369±149 • 2) TNFα: 6111±1231 • 3) IL-1: 11814±1151 • 4) TPA: 7181±444 Clones were selected.

HSF1 = conditions: cited from earlier work
NF-κB [3] = conditions: chemical or physiological inducers; 'at the same concentration'; cited from earlier work

Molecule: COC(=O)[C@H](CS[C@H]1CC(=O)CC[C@@H]1O[Si](C)(C)C(C)(C)C)NC(=O)OC(C)(C)C [CTM-68, 2-tert-Butoxycarbonylamino-3-[2-(tert-butyl-dimethyl-silanyloxy)-5-oxo-cyclohexylsulfanyl]-propionic acid methyl ester]
- CC50 at 8 h (in vitro): > 800 µM
- IC50 (Sendai virus): 1 µM
- LD50 (50% lethal dose/concentration) (37RC cells): 9.8 µM
- HSF; AC200 (concentration at which the tested compound doubled the HSF activity) (HSF): 98 µM
- IC50 (NF-κB [1]): 17 µM

Molecule: COC(=O)C(CSC1CC(=O)CC(O[Si](C)(C)C(C)(C)C)C1)NC(=O)OC(C)(C)C (stereo not drawn) [CTM-78, 2-tert-Butoxycarbonylamino-3-[3-(tert-butyl-dimethyl-silanyloxy)-5-oxo-cyclohexylsulfanyl]-propionic acid methyl ester]
- CC50 at 8 h (in vitro): > 800 µM
- IC50 (Sendai virus): 3 µM
- LD50 (50% lethal dose/concentration) (37RC cells): 18.6 µM
- HSF; AC200 (concentration at which the tested compound doubled the HSF activity) (HSF): 45 µM
- IC50 (NF-κB [1]): 22 µM

Molecule: CC(C)(C)[Si](C)(C)OC1C=CC(=O)CC1 (stereo not drawn) [Compound A, 4-tert-butyldimethylsilyloxy-cyclohex-2-en-1-one]
- IC50 (Sendai virus): 1 µM
- concentration of anti-viral effect relative to the concentration toxic to uninfected cells (uninfected cells): below that at which they were toxic to uninfected cells

Molecule: CC(C)(C)[Si](C)(C)OC1CC=CC(=O)C1 (stereo not drawn) [Compound B, 5-tert-butyldimethylsilyloxy-cyclohex-2-en-1-one]
- IC50 (Sendai virus): 0.4 µM
- concentration of anti-viral effect relative to the concentration toxic to uninfected cells (uninfected cells): below that at which they were toxic to uninfected cells

Molecule: CCCCCCCCCCCCCC(=O)O[C@@H]1[C@@H](C)[C@@]2(O)[C@@H](C=C(CO)C[C@]3(O)C(=O)C(C)=C[C@@H]23)[C@@H]2C(C)(C)[C@]12OC(C)=O [TPA, 12-O-tetradecanoylphorbol-13-acetate]
- luciferase activity after stimulation (NF-κB [2]): 7181±444

Molecule: O=C1C=CCC1 [cyclopent-2-en-1-one]
- concentration shown to activate HSF1 and trigger synthesis of HSP70 (HSF1): 125 to 500 µM
- concentration shown to block NF-κB activation (NF-κB [3]): 125 to 500 µM

Molecule: TNFα
- luciferase activity after stimulation (NF-κB [2]): 6111±1231
